Laboratory results: patent US7511159B2, “Azetidine ring compounds and drugs comprising the same” (Ono Pharmaceutical Co., Ltd., priority 2003, dated 2009)

Molecular target: T1, human EDG-5 (Homo sapiens, UniProt O95136)
T1 construct: expressed in transfected cells; host or cells: Chinese hamster ovary (CHO) cells
Assay: Evaluation of antagonistic activity for EDG-5 by monitoring the concentration change of intracellular calcium ion
Assay type: cell-based
Details: CHO cells overexpressing human EDG-5 gene, S1P 100 nM stimulation, Fura2, read-out: IC50 value (concentration showing an inhibition rate of 50%)
Procedure: Evaluation of Antagonistic Activity for EDG-5 by Monitoring the Concentration Change of Intracellular Calcium Ion
Chinese hamster ovary (CHO) cells in which human EDG-5 gene was overexpressed were cultured in Ham's F12 medium (GIBCO BRL) containing 10% FBS (fetal bovine serum), penicillin/streptomycin. and blasticidin (5 μg/mL). Thus cultured cells were incubated in a Fura2 (5 μM)-AM solution [Ham's F12 medium containing FBS (10%), HEPES buffer (20 mM, pH7.4), and probenecid (2.5 mM)] at 37° C. for 60 minutes. Then the cells were washed once with a Hanks' solution (2.5 mM) containing probenecid and immersed into the Hanks' solution. A plate was set on a fluorescent drug screening system, and the concentration of intracellular calcium ion was measured for 30 seconds with no stimulation. A solution of a compound (dimethyl sulfoxide (DMSO) solution of 1 nM to 10 μM at the final concentration) to be tested was added. After lapse of 5 minutes, S1P (final concentration: 100 nM) was added, the concentration of intracellular calcium ion before and after the addition of SiP was measured every 3 seconds (excitation wave length: 340 nm and 380 nm; fluorescent wave length: 500 nm). […]

T1 sequence (O95136 whole entry): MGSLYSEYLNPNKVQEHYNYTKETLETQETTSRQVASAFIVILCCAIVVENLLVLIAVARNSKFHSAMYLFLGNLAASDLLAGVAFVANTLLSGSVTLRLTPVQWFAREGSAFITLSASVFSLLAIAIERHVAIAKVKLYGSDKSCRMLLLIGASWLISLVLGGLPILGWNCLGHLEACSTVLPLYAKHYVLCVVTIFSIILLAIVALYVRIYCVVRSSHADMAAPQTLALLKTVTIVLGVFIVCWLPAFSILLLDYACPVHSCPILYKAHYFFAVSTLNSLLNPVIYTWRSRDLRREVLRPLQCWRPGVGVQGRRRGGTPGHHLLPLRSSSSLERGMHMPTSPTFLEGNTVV

IC50: 950 nM
SMILES: CCN(c1ccccc1)C1CN(C(=O)Nc2cc(C(F)(F)F)cc(C(F)(F)F)c2)C1 [Example 3(18), N-[3,5-Bis(trifluoromethyl)phenyl]-3-[ethyl(phenyl)amino]azetidine-1-carboxamide]
